The values that follow come from ChEMBL document CHEMBL1221163, “Monocarboxylate transporter MCT1 is a target for immunosuppression” (Nat Chem Biol, 2005).

In experiment [1] the target is T1, Monocarboxylate transporter 1 (Rattus norvegicus) (UniProt P53987).
T1 sequence (whole entry): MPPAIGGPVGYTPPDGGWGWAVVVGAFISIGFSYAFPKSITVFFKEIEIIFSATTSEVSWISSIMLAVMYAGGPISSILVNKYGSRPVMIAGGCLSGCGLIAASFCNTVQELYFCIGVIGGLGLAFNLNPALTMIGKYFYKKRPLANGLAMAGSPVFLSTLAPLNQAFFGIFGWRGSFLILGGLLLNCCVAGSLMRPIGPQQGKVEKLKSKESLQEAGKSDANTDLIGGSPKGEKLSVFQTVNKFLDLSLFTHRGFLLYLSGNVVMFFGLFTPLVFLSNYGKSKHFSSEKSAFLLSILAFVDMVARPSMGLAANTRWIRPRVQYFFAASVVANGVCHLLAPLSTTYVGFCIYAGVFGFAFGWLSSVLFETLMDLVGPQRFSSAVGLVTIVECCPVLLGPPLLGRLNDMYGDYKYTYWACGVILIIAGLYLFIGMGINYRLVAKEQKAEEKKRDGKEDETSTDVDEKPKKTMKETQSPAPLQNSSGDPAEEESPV
In words: 6-[[4-azido-3-(iodo-125I)phenyl]methyl]-2,6-dihydro-2-methyl-4-(2-methylpropyl)-1H-pyrrolo[3,4-d]pyridazin-1-one from MCT1 in rat RBC membranes at 50 nM by photoaffinity labeling study. The experiment is classed as cell membranes.

The target in experiment [2] is T2, Monocarboxylate transporter 1 (Homo sapiens, UniProt P53985).
T2 sequence (P53985 whole entry): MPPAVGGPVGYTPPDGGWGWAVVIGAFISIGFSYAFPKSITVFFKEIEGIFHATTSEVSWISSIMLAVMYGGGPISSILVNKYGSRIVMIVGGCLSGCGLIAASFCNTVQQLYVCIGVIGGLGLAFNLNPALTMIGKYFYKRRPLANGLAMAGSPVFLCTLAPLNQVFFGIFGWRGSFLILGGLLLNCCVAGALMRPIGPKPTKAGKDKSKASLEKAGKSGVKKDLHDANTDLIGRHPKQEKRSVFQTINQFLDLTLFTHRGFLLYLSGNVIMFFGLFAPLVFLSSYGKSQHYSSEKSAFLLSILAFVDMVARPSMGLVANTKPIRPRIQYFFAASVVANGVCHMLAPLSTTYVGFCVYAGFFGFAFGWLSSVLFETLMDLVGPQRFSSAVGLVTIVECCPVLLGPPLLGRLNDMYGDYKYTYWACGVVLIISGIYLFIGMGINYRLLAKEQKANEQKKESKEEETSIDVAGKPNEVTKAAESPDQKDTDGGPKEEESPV
In words: Displacement of [3H]5-[(3-hydroxypropyl)thio]-3-methyl-1-[2-(methyl-t)propyl-2,3-t2]-6-(1-naphthalenylmethyl)-1H-pyrrolo[3,4-d]pyrimidine-2,4(3H,6H)-dione from MCT1 in human Jurkat cell membranes. On the technique in general: In a radioligand displacement assay an active substance lowers the binding of a labelled ligand.

Another experiment has as its system PBMC. Put plainly: Antiproliferative activity against human PBMC assessed as inhibition of PMA/ionomycin-stimulated cell proliferation by [3H]thymidine incorporation assay. The class given is functional, cell-based. In general terms: Incorporation of labelled thymidine or its analogues reports DNA synthesis.
Experiment [3] is described as follows: Antiproliferative activity against human T cells assessed as inhibition of PMA-ionomycin stimulated cell proliferation after 3 days by [3H]thymidine incorporation assay. The class given is functional, cell-based.
For experiment [4], the system named is T-cell. In words: Antiproliferative activity against Lewis rat T cells assessed as inhibition of PMA-ionomycin stimulated cell proliferation by [3H]thymidine incorporation assay. The class given is functional, cell-based.
Experiment [5] deals with T-cell. In words: Antiproliferative activity against human T cells assessed as inhibition of PMA-ionomycin stimulated cell proliferation by [3H]thymidine incorporation assay. The class given is functional, cell-based.
Experiment [6] addresses T3, Monocarboxylate transporter 1 (Homo sapiens) (UniProt P53985).
T3 sequence (whole entry): T2 sequence (P53985 whole entry)
The note with it: INS1, 10 nM.

Experiment [7] has as its system T-cell. In words: Increase in intracellular lactate production in PMA-ionomycin stimulated human T cells after 4 hrs. The experiment is classed as functional, cell-based.
The subject of experiment [8] is T-cell. In words: Inhibition of conversion of [1,2-13C2]glucose into [2,3-13C2]lactate in PMA-ionomycin stimulated human T cells at 10 nM after 6 hrs by GC-MS method. The experiment is classed as functional, cell-based.
In experiment [9] the test system is T-cell. In words: Reduction in extracellular lactate production in PMA-ionomycin stimulated human T cells after 4 hrs. The experiment is classed as functional, cell-based.
Another experiment concerns Rattus norvegicus. In words: Inhibition of graft-versus-host response-induced lymph node expansion in DA/Lewis recipient rat administered once daily through subcutaneous route. The class given is functional. The note with it: sc.
The subject of experiment [10] is T-cell. Put plainly: Inhibition of DNA synthesis in PMA-ionomycin stimulated human T cells after 4 hrs by [3H]thymidine incorporation assay. The experiment is classed as functional, cell-based.
Experiment [11] addresses T1, Monocarboxylate transporter 1 (Rattus norvegicus). Put plainly: 6-[[4-azido-3-(iodo-125I)phenyl]methyl]-2,6-dihydro-2-methyl-4-(2-methylpropyl)-1H-pyrrolo[3,4-d]pyridazin-1-one from MCT1 in rat RBC ghost membranes at 1 uM by photoaffinity labeling study. The experiment is classed as cell membranes.
Experiment [12] has as its target T2, Monocarboxylate transporter 1. In words: Displacement of [3H]5-[(3-hydroxypropyl)thio]-3-methyl-1-[2-(methyl-t)propyl-2,3-t2]-6-(1-naphthalenylmethyl)-1H-pyrrolo[3,4-d]pyrimidine-2,4(3H,6H)-dione from human MCT1 expressed in INS1 cell membrane. The experiment is classed as cell membranes.

The structures appear in SMILES notation. Activity calls are given as the source filed them. The calls are words filed in the database; no cut-off is given here.

Broadly, the IC50 is the point on the concentration scale where inhibition reaches its midpoint. Turning to `CC(C)Cn1c(=O)[nH]c(=O)c2c(C(=O)N3CCC3)c(Cc3ccccc3C(F)(F)F)sc21`, in experiment [1], the inhibition entry is “Active”. Besides, in [2], the Ki is above 200 nM. Moreover, in the experiment with PBMC, the IC50 was above 1000 nM.
A word on the ED50: it is the midpoint of the dose-response relation. For `CC(C)Cc1nn(C)c(=O)c2c(SCCCO)n(Cc3cccc4ccccc34)cc12`, the IC50 in experiment [3] was 0.38 nM; with T-cell [7], 0.55 nM; with T-cell [9] it was 0.794 nM; in the experiment with T-cell [10], 1.35 nM. For the same molecule, the inhibition entry (in the experiment on T-cell [4]; with T-cell [5]; in [6]; in the experiment with T-cell [8]; with PBMC) was “Active” throughout. In addition, in the experiment on Rattus norvegicus, the 50% effect level (ED50) was put at a dose of 5 mg/kg/day.
For `CC(C)Cn1c(=O)n(C)c(=O)c2c(SCCCO)n(Cc3cccc4ccccc34)cc21`, the inhibition entry (in experiment [11]; in the experiment with T-cell [4]; in the experiment on T-cell [5]; in the experiment with PBMC) was “Active” throughout. In the experiment on PBMC, the IC50 was 2.45 nM.
As to `CC(C)Cn1c(=O)n(C)c(=O)c2c(SCCCO)c(Cc3ccccc3C(F)(F)F)sc21`, the IC50 with PBMC is 0.257 nM.
Consider `CC(C)Cn1c(=O)n(C)c(=O)c2cn(Cc3cccc4ccccc34)cc21`, for which the Ki in [2] was 15.5 nM; in experiment [12] (read-out: pKi (converted)) it was 46.8 nM. In the experiment on PBMC, the IC50 is 56.2 nM.
With `CC(C)Cn1c(=O)n(C)c(=O)c2c(C(=O)N3CC=CC3)c(Cc3ccccc3C(F)(F)F)sc21`, the half-maximal inhibitory concentration (IC50) is 12 nM in [3], 4.79 nM in the experiment with T-cell [7], 10.2 nM in the experiment on T-cell [9] and 11.7 nM in the experiment on T-cell [10]. Also, the results for the Ki in experiment [2] and in [12] (read-out: pKi (converted)) were 3.39 nM and 10.7 nM, respectively.
For `CC(C)Cn1c(=O)n(C)c(=O)c2c(C(=O)N3CCCC3)c(Cc3ccccc3C(F)(F)F)sc21`, the IC50 is 2.88 nM in experiment [3], 3.31 nM with T-cell [7], 5.37 nM in the experiment with T-cell [9] and 10 nM with T-cell [10].
Regarding `CC(C)Cc1nn(C)c(=O)c2cn(Cc3ccc(N=[N+]=[N-])c([125I])c3)cc12`, in experiment [12] (read-out: Ki), the Ki turned out to be 23 nM.
Regarding `CC(C)Cn1c(=O)n(C)c(=O)c2c(C(=O)N3CC[C@@H](O)C3)c(Cc3c[nH]c4ccccc34)sc21`, the IC50 in experiment [3] was 0.912 nM; in the experiment with T-cell [7], 1.55 nM; in the experiment with T-cell [9] it was 4.27 nM; in the experiment on T-cell [10] it was 3.31 nM.
For the molecule `CC(C)Cn1c(=O)n(C)c(=O)c2c(C(=O)N3CC[C@@H](O)C3)c(Cc3ccnc4ccccc34)sc21`, the IC50 was 3.24 nM in experiment [3], 4.57 nM with T-cell [7], 11.5 nM in the experiment on T-cell [9] and 9.77 nM with T-cell [10].
